Source: patent US7626042B2, “O-substituted hydroxyaryl derivatives” (Institute of Medicinal Molecular Design, Inc., priority 2002, dated 2009)

Test system: NF-κB activation
Assay: Inhibitory activity against NF-κB activation, luciferase reporter assay under TNF-α stimulation
Type: cell-based, human
Settings: HepG2 cells, TNF-α 40 ng/ml, 4 hours; for inhibition at 1 µg/mL / inhibition at 10 µg/mL: Homo sapiens, read-out: Inhibitory Ratio of NF-κ B Activation(%)
Procedure, shortened: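 HepG2 cells transfected with firefly luciferase reporter carrying five tandem NF-κB sites, incubated 6 to 24 hours, then cultured 4 hours with TNF-α (40 ng/ml) plus test compound. Luminescent luciferase read-out; inhibition expressed relative to activity without compound.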

Structure (SMILES) | Inhibitory Ratio of NF-κ B Activation(%) (Drug Concentration 1 μg/mL) | Inhibitory Ratio of NF-κ B Activation(%) (Drug Concentration 10 μg/mL) | inhibition at 1 µg/mL (Drug Concentration 1 μg/mL) [%] | inhibition at 10 µg/mL (Drug Concentration 10 μg/mL) [%]
O=C(Nc1cc(C(F)(F)F)cc(C(F)(F)F)c1)c1cc(Cl)ccc1OCN1C(=O)c2ccccc2C1=O [Compound 111] | 94.3 | 96.0 | – | –
CC(=O)OC[C@H]1O[C@@H](Oc2ccc(Cl)cc2C(=O)Nc2cc(C(F)(F)F)cc(C(F)(F)F)c2)[C@H](OC(C)=O)[C@@H](OC(C)=O)[C@@H]1OC(C)=O [Compound 112] | 47.2 | 49.5 | – | –
O=c1oc2ccc(Cl)cc2c(=O)n1-c1cc(C(F)(F)F)cc(C(F)(F)F)c1 [Compound 113] | – | – | 96.8 | 97.9
O=C1CCC(=O)N(c2cc(C(F)(F)F)cc(C(F)(F)F)c2)C(=O)c2cc(Cl)ccc2O1 [Compound 114] | – | – | 97.2 | 98.5
COC(=O)C1Oc2ccc(Cl)cc2C(=O)N1c1cc(C(F)(F)F)cc(C(F)(F)F)c1 (centres unmarked) [Compound 115, 6-chloro-3,4-dihydro-4-oxo-3-[3,5-bis(trifluoromethyl)phenyl]-2H-1,3-benzoxazine-2-carboxylic acid methyl ester] | – | – | 41.8 | 92.2
O=C(O)C1Oc2ccc(Cl)cc2C(=O)N1c1cc(C(F)(F)F)cc(C(F)(F)F)c1 (centres unmarked) [Compound 116] | – | – | 35.1 | 20.1
COC(=O)CC1(C(=O)OC)Oc2ccc(Cl)cc2C(=O)N1c1cc(C(F)(F)F)cc(C(F)(F)F)c1 (centres unmarked) [Compound 117] | – | – | 34.8 | 56.7
CCC(C)(C)c1ccc(Oc2ccccc2)c(-n2c(=O)oc3ccc(Cl)cc3c2=O)c1 [Compound 118, 6-Chloro-3-[5-(1,1-dimethyl)propyl-2-phenoxyphenyl]-3,4-dihydro-2H-1,3-benzoxazine-2,4-dione] | – | – | 94 | 97.4
O=C(Nc1ccc(-c2ccccc2)cc1)c1cc(C(F)(F)F)ccc1OC(=O)N1CCOCC1 [Compound 119] | >99.9 | >99.9 | – | –
O=C(Nc1cc(C(F)(F)F)ccc1C(F)(F)F)c1cc(Cl)ccc1OP(=O)([O-])O.[Na+] [Compound 122] | >99.9 | >99.9 | – | –
O=C(Nc1cc(C(F)(F)F)ccc1Cl)c1cc(Cl)ccc1OP(=O)([O-])O.[Na+] [Compound 125] | >99.9 | >99.9 | – | –
CC(C)(C)C(=O)c1sc(NC(=O)c2cc(Cl)ccc2OP(=O)([O-])O)nc1C(C)(C)C.[Na+] [Compound 128] | >99.9 | >99.9 | – | –
O=C(Nc1cc(C(F)(F)F)ccc1C(F)(F)F)c1cc(Br)cc(Br)c1OC(=O)N1CCOCC1 [Compound 130, 3,5-Dibromo-2-(morpholinocarbonyl)oxy-N-[2,5-bis(trifluoromethyl)phenyl]-benzamide] | – | – | 18.9 | –
O=C(Oc1ccccc1C(=O)Nc1cc(C(F)(F)F)ccc1C(F)(F)F)c1ccccc1O [Compound 131] | >99.9 | – | – | –
O=C(Nc1cc(C(F)(F)F)ccc1C(F)(F)F)c1ccccc1OC(=O)N1CCOCC1 [Compound 132] | 32.3 | – | – | –
O=C(Nc1cc(C(F)(F)F)ccc1Cl)c1cc(Br)ccc1OP(=O)([O-])O.[Na+] [Compound 136] | >99.9 | – | – | –
CC(C)(C)c1ccc(OP(=O)([O-])O)c(C(=O)Nc2cc(C(F)(F)F)cc(C(F)(F)F)c2)c1.[Na+] [Compound 139] | 64.3 | – | – | –
O=C(Nc1cc(C(F)(F)F)ccc1C(F)(F)F)c1cc(Br)ccc1OP(=O)([O-])O.[Na+] [Compound 142] | >99.9 | – | – | –
CC(C)(C)c1cc(NC(=O)c2cc(Br)ccc2OP(=O)([O-])O)cc(C(C)(C)C)c1.[Na+] [Compound 145] | 93.1 | – | – | –
COc1cc(NC(=O)c2cc(Br)ccc2OP(=O)([O-])O)cc(C(F)(F)F)c1.[Na+] [Compound 149] | >99.9 | – | – | –
